Data published in ChEMBL document CHEMBL3507680, “University of Dundee, Gates Library screen for HepG2 cell viability”.

Assay: Human HepG2 cell viability assay in 384 well format
Format: toxicity, cell-based
Parameters: dose 125 nL, time 70.5 hour; concentration not given beside the values
Details: HepG2 cells, read-out: Inhibition

Row | SMILES | cytotoxicity at 70.5 h
1 | CNC(=O)C(C)(C)CNC(=O)Nc1ccncc1C | -9.08%
2 | Cc1ccc2c(c1)OC(C)(C)CC2NC(=O)C1CCN(S(C)(=O)=O)CC1 (stereo unspecified) | -5.08%
3 | Cc1cccc(-c2nccnc2C2CCCN(C)C2)c1 (stereo unspecified) | -2.49%
4 | CC(C)=CCN1CCN(Cc2nccn2C)C(C)C1 (stereo unspecified) | 22%
5 | CC(C)c1nc(C2CCCN2C(=O)c2ccc(C#N)cn2)no1 (stereo unspecified) | 1.98%
6 | CSCC(=O)NS(=O)(=O)c1ccc2c(c1)OCCO2 | 0.628%
7 | COC(=O)c1ccc(S(=O)(=O)N2CCCn3ncnc32)s1 | 0.743%
8 | Cc1oc(CNC(=O)Cc2ccc3ccccc3c2)cc1C(=O)O | 5.89%
9 | CCN1C(=O)[C@]2(CC[C@@H]3CN(S(=O)(=O)CC(C)C)C[C@@H]32)N=C1C | -12.6%
10 | Cc1c(CN2CCc3[nH]cnc3C2C2CC2)[nH]c2ccc(F)cc12 (stereo unspecified) | 4.41%
11 | CC(c1ccco1)N(C(=O)CNc1ccc(C#N)cc1)C1CC1 (stereo unspecified) | 4.38%
12 | Cc1ncc(CNCC(C)O)c2cc(C(=O)c3ccc(Br)cc3)oc12 (stereo unspecified) | -16.1%
13 | C[C@H](O)c1cnn(-c2ccccc2)c1 | -1.87%
14 | Cc1cccc(N2CCN(Cc3nc(CC4CC4)no3)CC2)n1 | 1.5%
15 | Cc1nnsc1CN1CCCC1c1nc(-c2ccccc2)no1 (stereo unspecified) | -3.77%
16 | COc1cccc(CNC(=O)c2cccnc2N)c1 | 6.88%
17 | CC(C)CN1C(=O)CO[C@@H]2CN(C(=O)N(C)C)C[C@H]21 | 2.11%
18 | CC(C)(C)c1ncc(CNc2ccccc2Cn2cncn2)s1 | -8.54%
19 | CC(C)(C)OC(=O)NC1(c2noc(-c3ccco3)n2)CCC1 | -9.18%
20 | CCn1ccnc1C1CCCN(c2nccc3ccccc23)C1 (stereo unspecified) | -8.19%
21 | CN(C)C(=O)N1C[C@H](Oc2ccccn2)[C@H]2OCCC[C@H]21 | -7.83%
22 | Cc1ncsc1C(=O)NCCNC(=O)c1cccs1 | -3.7%
23 | CCCSc1ncc(CN(C)CCN2CCCCC2)cn1 | -2.41%

Row | SMILES | cytotoxicity at 70.5 h
24 | CC(C)N(C)S(=O)(=O)N(C)Cc1cnn(Cc2ccccc2)c1 | 3.45%
25 | Cc1nc(CN2CCN(C(=O)c3sccc3C3CC3)CC2)cs1 | -13%
26 | CC1CCCN(C(=O)c2nnn(-c3ccc(C(F)(F)F)cc3)n2)C1 (stereo unspecified) | 1.4%
27 | O=C1OCCN1CC(=O)N1C[C@H]2CC[C@@H]1CN(C(=O)c1cccnc1)C2 | -2.17%
28 | Cn1cc(CN2CCCC(CCCc3ccccn3)(C(N)=O)C2)cn1 (stereo unspecified) | -8.02%
29 | Oc1nc(N2CCOCC2)nc2c1CCN(Cc1ccccc1)CC2 | -1.05%
30 | COc1ccc(Cc2c(O)nc(SC)n(-c3ccccc3)c2=O)cc1 | 12.6%
31 | O=C(COc1coc(CN2CCCCC2)cc1=O)NCc1ccccc1 | -15.4%
32 | CCCc1cc(C(=O)N(Cc2cccnc2)C2CCCCC2)[nH]n1 | -7.56%
33 | Cn1nc(CNC(=O)C2CCCCC2)cc1C1CC1 | 33%
34 | O=C(c1ccnnc1)N1CCN2C[C@H](Oc3cccc(F)c3)C[C@H]2C1 | -5.78%
35 | O=C(NC1CCCC1)c1cc(Cn2cnc3ccccc32)on1 | -1.14%
36 | c1ccc(CNc2ccccc2N2CCCC2)nc1 | -18.2%
37 | COc1c(CNCc2ccc3c(c2)OCO3)c(C(C)C)nn1C | 18.3%
38 | CN1Cc2ccccc2CC2(CCN(C(=O)[C@H]3CCCO3)CC2)C1=O | -4.74%
39 | CNC(=O)c1cnc(/C=C/c2cc(OC)c3c(c2)OCCO3)s1 | -6.59%
40 | Cc1nc(C)n(CC2CCCN2Cc2ccn(-c3ccccc3)n2)n1 (stereo unspecified) | 3.67%
41 | COc1cccc(CNCc2cccnc2-n2cccn2)c1OC | 19.6%
42 | Cc1ccc(-c2nn(-c3cccc(F)c3)cc2CN(C)CCO)o1 | -4.83%
43 | COCc1ncn2c1CN(C(=O)C1CC=CC1)CC2 | -8.8%
44 | CC(C)c1nccn1C1CCCN(C(=O)C2=NN(C)C(=O)CC2)C1 (stereo unspecified) | -10.1%
45 | CC(C)Cc1noc(CN2CCN(S(C)(=O)=O)CC2)n1 | -7.6%
46 | O=C(c1cccc(NCCOc2ccc(F)cc2)c1)N1CCOCC1 | 4.98%

Row | SMILES | cytotoxicity at 70.5 h
47 | CCOc1cc(C)nc(N2CCN(C(=O)c3cc(C)on3)CC2)n1 | -1.38%
48 | Cc1ccc(C(=O)NCC2(O)CCOCC2)cc1Br | -7.13%
49 | CCc1nn(C)c(Cl)c1CN1C[C@H](NC(=O)CCO)[C@@H](C(C)C)C1 | -5.11%
50 | O=C1CO[C@@H]2CN(CC3CCOCC3)C[C@H]2N1Cc1ccncc1 | -2.17%
51 | COc1ccc(F)cc1C(=O)C1CCCN(Cc2cnc(C)s2)C1 (stereo unspecified) | -11.8%
52 | Cc1ncsc1C(=O)N1CC[C@@]2(O)CCN(C(=O)N3CCCC3)C[C@H]2C1 | 12.8%
53 | Cc1ccc(NS(=O)(=O)c2c[nH]c3ncccc23)nc1 | -2%
54 | O=C(COc1cccc(F)c1)N1C[C@@H](CN2CCCC2)C[C@H](CO)C1 | 0.446%
55 | CC1CCCN(Cc2ccc(CNC(=O)NCc3ccncc3)cc2)C1 (stereo unspecified) | -5.32%
56 | COCC(O)CN1CCC(=O)N(Cc2ccco2)Cc2ccccc21 (stereo unspecified) | 26.6%
57 | O=C1CCC2(CCCN(Cc3nnc(C4CC4)o3)C2)CN1CCO (stereo unspecified) | 3.23%
58 | CC(=O)c1ccc(CN2CCCC23CCN(c2ccccn2)CC3)cc1 | -25.1%
59 | Cc1ccc(C(C)N(C)C(=O)c2ccc(=O)n(C)c2)s1 (stereo unspecified) | -0.24%
60 | Cc1cc(C)c(-n2cccn2)c(CN2CCOCC(CN(C)C)C2)c1 (stereo unspecified) | -3.75%
61 | CO[C@H]1CCN(C(=O)Cc2ccccn2)[C@H]1Cc1ccncc1 | -7.06%
62 | O=C(c1cc(F)cc(F)c1)N1C[C@H]2CNC[C@H]2C1 | -13.4%
63 | CC(C)Oc1ccc(CN)c(C(F)(F)F)c1 | -7.67%
64 | CC(C)n1cnc(-c2nc(C(=O)NC3CC3)c3ccccn23)c1 | -15.8%
65 | Cn1nc(CN2CCCCC2)c2c1CN(C(=O)Nc1cccc(F)c1)C2 | 11.6%
66 | CC[C@H](C)Nc1nccc(-c2cnc3sccn3c2=O)n1 | -4.72%
67 | N#CC1(NC(=O)c2ccc(F)c(Br)c2)CCSC1 (stereo unspecified) | -8.42%
68 | CCN1CCC2(CN(C(=O)N(C)C)CC23CCNCC3)C1=O (stereo unspecified) | -8.8%
69 | COc1ccc(Cl)cc1NCC(=O)N(Cc1cccnc1)C1CC1 | -7.28%

Row | SMILES | cytotoxicity at 70.5 h
70 | c1ccc2sc(CN3CCOC(Cn4cccn4)C3)nc2c1 (stereo unspecified) | 24.8%
71 | COc1ccc(-c2nc(CCNCc3ccncc3)co2)cc1 | 1.89%
72 | CC(C)(C)N1CC(c2ncc(-c3ccc4c(c3)OCCO4)[nH]2)CC1=O (stereo unspecified) | -2.24%
73 | COc1ccc(-n2cnnc2SCC(C)(C)O)cn1 | -3.59%
74 | CN1CCN(CCOc2ccc(NC(=O)c3cnc[nH]3)cc2)CC1 | 6.08%
75 | c1cc(NCc2ccsc2)cc(-c2nnc[nH]2)c1 | 1.3%
76 | CCCn1c(C)c(CC(=O)NC(C)(C)CO)c2c1CC(C)(C)CC2=O | 0.294%
77 | Cc1ccc(NS(=O)(=O)c2ccc(C#N)cc2)c(CN(C)C)c1 | -3.45%
78 | CCCn1cnc(NC(=O)NCC2CCS(=O)(=O)C2)n1 (stereo unspecified) | 12.9%
79 | Cc1nn(C)c(C)c1CN(Cc1cccn1-c1ncccn1)C(C)C | 3.54%
80 | O=C1NCC[C@]12CN(Cc1ccoc1)C[C@H]2c1ccccc1 | 16.2%
81 | COc1ccc(OCCc2cc(C3CCN(CC(C)C)C3)n[nH]2)cc1 (stereo unspecified) | -2.33%
82 | CCN1CC[C@@]2(C(=O)N3CCOCC3)CCN(S(=O)(=O)CC)CC[C@@H]12 | 3.2%
83 | COc1ccccc1[C@@H]1CN(Cc2cc(C(C)(C)C)[nH]n2)C[C@H]1C(=O)O | -7.86%
84 | CNC(=O)[C@H]1C[C@@H]2CN(S(=O)(=O)c3cccc(C)c3)C[C@@H]2N1C | 2.15%
85 | CN1C(=O)[C@H]2CC[C@@H]1CN(C(=O)c1csc(Cc3ccccc3)n1)C2 | -11.4%
86 | Cc1ccc(C(=O)N2C[C@@H]3COC[C@]3(COCc3cccnc3)C2)cn1 | -6.21%
87 | CC(=O)Nc1ccc(C(=O)N(C)C(C)Cc2cc(C)ccn2)cn1 (stereo unspecified) | 1.81%
88 | Cc1ccc(CN(CCCn2ccnc2)Cc2cnc(N(C)C)nc2)s1 | 21.5%
89 | c1cncc(-c2ccc3c(c2)C2(CC3)CCN(c3nncs3)CC2)c1 | -13.1%
90 | CC[C@@H]1N(Cc2ccccn2)CCC[C@]12CCC(=O)N2CCOC | -5.82%
91 | CNCCNc1ccc(-c2nc(-c3cccc(OC)c3OC)no2)cn1 | -2.42%
92 | O=C(NCc1csc2ccc(Cl)cc12)c1cc2n(n1)CCNC2 | 3.64%

Row | SMILES | cytotoxicity at 70.5 h
93 | O=C(Nc1ccccn1)c1ccc(F)c(S(=O)(=O)NC2CC2)c1 | -16.8%
94 | CCOc1ncccc1CNC(=O)NCC(O)c1ccccc1OC (stereo unspecified) | -1.39%
95 | COc1ccc(CCN(C)C(=O)CN2C(=O)OC[C@@H]2C(C)C)cc1OC | -4.47%
96 | CC(C)(CN1CCC(Cc2ccc(CO)cc2)C1)N1CCOCC1 (stereo unspecified) | -10.6%
97 | CN(C)CC(=O)N1CCC2(CC1)COC(COc1ccccn1)C2 (stereo unspecified) | -7.86%
98 | CN(CCOc1cccc(F)c1)CC(=O)Nc1ccncc1 | -10.9%
99 | Cc1nn(C)c(Cl)c1C1CCCN1C(=O)c1ccc(O)nc1 (stereo unspecified) | 23.1%
100 | Clc1ccc(-c2nc(CN3CCCC3Cn3cncn3)co2)cc1 (stereo unspecified) | -1.1%
101 | Cc1nc(CNCc2cccnc2Oc2ccc(C)c(F)c2F)c[nH]1 | 0.762%
102 | CCOc1ccc(CC(CNC(=O)c2ccc(C)s2)C(N)=O)cc1 (stereo unspecified) | 4.65%
103 | c1ccc(-c2nc(CCNC3CCOC4(CCOCC4)C3)no2)cc1 (stereo unspecified) | -8.69%
104 | COc1ncccc1CNCc1c(C(C)C)nn(C)c1Cl | -5.22%
105 | CCOCCC(=O)N1CC(=O)Nc2cc(Br)ccc21 | 22%
106 | CN(C)S(=O)(=O)N1CCN(C(=O)c2cc(-c3ccccc3)[nH]n2)CC1 | -0.515%
107 | Cc1nccn1CCNC(=O)C1(C)CC(c2ccccc2)=NO1 (stereo unspecified) | -3.18%
108 | O=C(C1CCCCO1)N1CCc2ncnc(NCc3ccon3)c2CC1 (stereo unspecified) | -9.14%
109 | CCCc1cc(=O)[nH]c(-c2ccccc2CN(C)CCn2cccn2)n1 | 5.03%
110 | O=C(Nc1ccccc1)C1CCN(C(=O)COc2ccccc2F)CC1 | 7.69%
111 | COCC(C)(C)NS(=O)(=O)C1CS(=O)(=O)c2ccccc21 (stereo unspecified) | -17.4%
